Measurements: publication PMC8780828 (Viruses, 2021)
“Also recorded” adds a separate entry of the source. Like-named read-outs stand apart in the source and are kept apart here.

What was measured:
[1] = system: pseudovirus NL4-3ΔEnv-NanoLuc/SARS-CoV-2; test: organism not typed; format: cell-based; details: HT-1080; n=3
[2] = in vitro; details: human
[3] = system: pseudovirus NL4-3ΔEnv-NanoLuc/SARS-CoV-2; test: organism not typed; format: cell-based; details: 293T/ACE2
[4] = in vitro; details: human; remark: listed apart in the source
[5] = system: NL4-3ΔEnv-NanoLuc/SARS-CoV-2; test: organism not typed; format: cell-based
[6] = target: malate dehydrogenase (MDH); format: biochemical
[7] = system: Trypsin; format: biochemical
[8] = target: β-lactamase; format: biochemical
[9] = system: pseudovirus NL4-3ΔEnv-NanoLuc/SARS-CoV-2; test: SARS-CoV-2 pseudovirus assay with pre-treated 293T/ACE2 cells; format: cell-based; details: 293T/ACE2 cells pre-treated with compound 30 min before infection
[10] = system: pseudovirus NL4-3ΔEnv-NanoLuc/SARS-CoV-2; test: organism not typed; format: cell-based; details: A549-ACE2; n=3
[11] = system: SARS-CoV-2 (US_WA-1/2020); format: cell-based
[12] = system: pseudovirus NL4-3ΔEnv-NanoLuc/MERS-CoV; test: microbe, parasite or virus in culture; format: cell-based; details: Middle East respiratory syndrome-related coronavirus, Huh-7
[13] = system: pseudovirus NL4-3ΔEnv-NanoLuc/SARS-CoV; test: microbe, parasite or virus in culture; format: cell-based; details: Severe acute respiratory syndrome coronavirus, HT-1080
[14] = system: pseudovirus NL4-3ΔEnv-NanoLuc/SARS-CoV; test: microbe, parasite or virus in culture; format: cell-based; details: Severe acute respiratory syndrome coronavirus, 293T/ACE2; n=3
[15] = system: pseudovirus NL4-3ΔEnv-NanoLuc/MERS-CoV; test: microbe, parasite or virus in culture; format: cell-based; details: Middle East respiratory syndrome-related coronavirus, MRC5
[16] = system: control pseudovirus NL4-3.Luc.R-E-/A-MLV; test: Control pseudovirus A-MLV assay in 293T/ACE2 cells; format: cell-based, amphotropic murine leukemia virus (A-MLV); details: NL43, 293T/ACE2
[17] = system: pseudovirus NL4-3ΔEnv-NanoLuc/SARS-CoV; test: microbe, parasite or virus in culture; format: cell-based; details: Severe acute respiratory syndrome coronavirus, A549-ACE2
[18] = system: MERS-CoV pseudovirus; test: microbe, parasite or virus in culture; format: cell-based; details: Middle East respiratory syndrome-related coronavirus
[19] = rat, in vivo
[20] = in vivo; details: female, Sprague Dawley, rat; for MRT inf: MRT0-inf_obs
[21] = target: SARS-CoV-2 spike S1 subunit protein (Severe acute respiratory syndrome coronavirus 2, UniProt P0DTC2); format: binding
[22] = female, Sprague Dawley, iv, 5 mg/kg

SMILES: O=C1NC(=S)S/C1=C\c1ccc(-c2ccc(Cl)c(C(=O)O)c2)o1 [NBCoV17]
- IC50 [1]: > 2000 nM
- CC50 [2]: > 100000 nM
- IC50 [3]: > 2000 nM
- CC50 [4]: > 100000 nM
- antiviral activity against SARS-CoV-2 pseudovirus [5]: no antiviral activity; also recorded: did not show any inhibitory activities

SMILES: O=C1NC(=S)S/C1=C\c1ccc(-c2ccc(C(=O)O)cc2)o1 [NBCoV34]
- IC50 [1]: > 2000 nM
- IC50 [6]: > 2000 nM
- CC50 [2]: ~100000 nM
- IC50 [7]: > 2000 nM
- IC50 [3]: > 2000 nM
- CC50 [4]: 83000 ± 4000 nM
- IC50 [8]: > 2000 nM
- antiviral activity against SARS-CoV-2 pseudovirus [5]: no antiviral activity; also recorded: no inhibitory activity

SMILES: C#CCN1C(=O)/C(=C/c2ccc(-c3ccc(Cl)c(C(=O)O)c3)o2)SC1=S [NBCoV28]
- IC50 [1]: > 2000 nM
- CC50 [2]: 92000 ± 3000 nM
- IC50 [3]: > 2000 nM
- CC50 [4]: > 100000 nM
- antiviral activity against SARS-CoV-2 pseudovirus [5]: no antiviral activity; also recorded: did not show any inhibitory activities

SMILES: O=C1C(=Cc2ccc(-c3ccc(Cl)cc3)o2)SC(=S)N1CCc1ccccc1 [NBCoV15, 5-((5-(4-chlorophenyl)furan-2-yl)methylene)-3-phenethyl-2-thioxothiazolidin-4-one]
- IC50 [1]: > 2000 nM
- IC50 [3]: > 2000 nM
- antiviral activity against SARS-CoV-2 pseudovirus [5]: virtually no inhibition; also recorded: no antiviral activity; also recorded: no antiviral potency

SMILES: CCc1ccc(-c2ccc(/C=C3\SC(=S)N(CCc4ccccc4)C3=O)o2)cc1C(=O)O [NBCoV6]
- IC50 [9]: > 2000 nM
- IC50 [1]: 245 ± 5 nM
- IC50 [10]: 613 ± 72 nM
- IC100 [11]: > 10 µM
- IC50 [3]: 185 ± 5.8 nM
- IC50 ([12]; n=3, read-out: IC50): 569 ± 31 nM
- IC50 ([13]; n=3, read-out: IC50): 133 ± 9.5 nM
- IC50 [14]: 175 ± 7 nM
- IC50 ([15]; n=3, read-out: IC50): 945 ± 77 nM
- IC50 [16]: > 2000 nM
- IC50 ([17]; n=3, read-out: IC50): 867 ± 62 nM
- IC100 (range of IC100 values detected in the three cell lines) [5]: 1 to 3 µM

SMILES: Cc1c(C(=O)O)cncc1-c1ccc(/C=C2\SC(=S)N(CCc3ccccc3)C2=O)o1 [NBCoV9]
- IC50 [9]: > 2000 nM
- IC50 [1]: 365 ± 73 nM
- IC50 [10]: 596 ± 42 nM
- IC100 [11]: > 10 µM
- IC50 [3]: 342 ± 46 nM
- IC50 ([12]; n=3, read-out: IC50): 214 ± 23 nM
- IC50 ([13]; n=3, read-out: IC50): 246 ± 10 nM
- IC50 [14]: 217 ± 22 nM
- IC50 ([15]; n=3, read-out: IC50): 232 ± 17 nM
- IC50 [16]: 1630 ± 118 nM
- IC50 ([17]; n=3, read-out: IC50): 350 ± 15 nM
- IC50 [18]: ~200 nM
- IC100 (range of IC100 values detected in the three cell lines) [5]: 2 to 3 µM

SMILES: O=C(O)c1cccc(-c2ccc(/C=C3\SC(=S)N(CCc4ccccc4)C3=O)o2)c1 [NBCoV2]
- IC50 [9]: > 2000 nM
- IC50 [1]: 25.3 ± 0.6 nM
- IC50 [6]: > 2000 nM
- CLobs [19, 22]: 0.00027 (mg/kg)/(ng/mL)/h
- Vss_obs [19, 22]: 0.0014 (mg/kg)/(ng/mL)
- AUC0-t ([19]; iv, 5 mg/kg): 18,074.45 ng/mL ∗ h
- AUC0-t ([19]; po, 10 mg/kg): 318.78 ng/mL ∗ h
- Vz/F_obs ([19]; po, 10 mg/kg): 0.1759 (mg/kg)/(ng/mL)
- IC50 [10]: 58 ± 1.7 nM
- bioavailability ([20]; F% (bioavailability)): 0.9%
- C0 ([20]; iv, 5 mg/kg): 1710 ng/mL
- Tmax ([20]; iv, 5 mg/kg): 2 h
- Cmax ([20]; iv, 5 mg/kg): 2220 ng/mL
- MRT inf ([20]; iv, 5 mg/kg): 5.09 h
- half-life ([20]; iv, 5 mg/kg, t1/2): 3.52 h
- Tmax ([20]; po, 10 mg/kg): 4 h
- Cmax ([20]; po, 10 mg/kg): 30.1 ng/mL
- MRT inf ([20]; po, 10 mg/kg): 7.28 h
- half-life ([20]; po, 10 mg/kg, t1/2): 3.96 h
- half-life ([20]; t1/2 (range PO and IV)): 3.5 to 3.9 h
- IC50 [7]: > 2000 nM
- IC100 [11]: > 10 µM
- kd [21]: 0.0251 s⁻¹
- IC50 [12]: 112 ± 7 nM
- IC50 [13]: 19.3 ± 1.1 nM
- IC50 [15]: 77 nM
- IC50 [8]: > 2000 nM
- IC50 [16]: 783 ± 76 nM
- IC50 [17]: 111 ± 9 nM
- IC100 (range of IC100 values detected in the three cell lines) [5]: 0.3 to 1 µM
- IC50 ([5]; read-out: IC50 (range over the three cell lines)): 22.8 to 58 nM

SMILES: O=C(O)c1cccc(-c2ccc(/C=C3\SC(=S)N(CCc4ccccc4)C3=O)o2)c1F [NBCoV7]
- IC50 [9]: > 2000 nM
- IC50 [1]: 290 ± 57 nM
- IC50 [10]: 416 ± 25 nM
- IC100 [11]: > 10 µM
- IC50 [3]: 298 ± 60 nM
- IC50 ([12]; n=3, read-out: IC50): 933 ± 153 nM
- IC50 ([13]; n=3, read-out: IC50): 52 ± 8.9 nM
- IC50 [14]: 111 ± 1.7 nM
- IC50 ([15]; n=3, read-out: IC50): 927 ± 63.5 nM
- IC50 [16]: > 2000 nM
- IC50 ([17]; n=3, read-out: IC50): 271 ± 76 nM
- IC100 (range of IC100 values detected in the three cell lines) [5]: 1 to 3 µM
